According to ChEMBL document CHEMBL1800015, “Cytotoxic steroidal alkaloids from Kibatalia laurifolia” (J Nat Prod, 2011):

These compounds were tested on KB (assay: Cytotoxicity against human KB cells after 72 hrs by neutral red based colorimetry assay).
Type: functional, cell-based
`C[C@@H]1OC(=O)[C@]23CC[C@H]4[C@@H](CC=C5C[C@@H](N)CC[C@@]54C)[C@@H]2CC[C@H]13` showed an IC50 of 21.2 µM.
For `CN[C@H]1CC[C@@]2(C)C(=C[C@@H](O)[C@H]3[C@@H]4CC[C@@H]5[C@H](C)OC(=O)[C@@]54CC[C@@H]32)C1`, the IC50 was > 50 µM.
Work on `CN[C@@H]1CC[C@@]2(C)C(=CC[C@H]3[C@@H]4CC[C@@H]5[C@H](C)OC(=O)[C@@]54CC[C@@H]32)C1` yielded an IC50 of 21 µM.
`CC(=O)N[C@@H]1CC[C@@]2(C)C(=CC[C@H]3[C@@H]4CC[C@@H]5[C@H](C)OC(=O)[C@@]54CC[C@@H]32)C1` was tested, and the IC50 was > 50 µM.
Compound `C[C@@H]1OC(=O)[C@]23CC[C@H]4[C@@H](CC=C5C[C@H](N)CC[C@@]54C)[C@@H]2CC[C@H]13` [GITINGENSINE] has an IC50 of 21 µM.
Work on `C[C@@H]1OC(=O)[C@]23CC[C@H]4[C@@H](C(=O)C=C5C=CCC[C@@]54C)[C@@H]2CC[C@H]13` [KIBALAURIFENONE] yielded an IC50 of 21 µM.
`CC(=O)N(C)[C@H]1C=C2C=C[C@H]3[C@@H]4CC[C@@H]5[C@H](C)OC(=O)[C@@]54CC[C@@H]3[C@@]2(C)CC1` [KIBALAURIFOLINE] showed an IC50 of 21 µM.
Compound `CN[C@H]1CC[C@@]2(C)C(=CC[C@H]3[C@@H]4CC[C@@H]5[C@H](C)OC(=O)[C@@]54CC[C@@H]32)C1` [PARAVALLARINE] has an IC50 of 12.8 µM.
